Results as given in patent US12365643B2, “Phenoxy carboxylic acid compounds and medical uses thereof” (QINGDAO RISING BIOTECHNOLOGY CO., LTD, priority 2018, dated 2025).

Experiments:
[1] = test system: RAW264.7 mouse macrophages; assay: Determination of NO generation induced by LPS; format: cell-based; conditions: 10 μM, 1 μg/mL LPS, 24 hours, RAW264.7 (FIG. 2)
Description: The results are expressed as the multiple of the NO content in the cell culture supernatant of the administration group (10 μM) as compared with that in the cell culture supernatant of the control group (DMSO group), in which compared with the control group, *P<0.05, **P<0.01, ***P<0.001.
NO is a reactive nitrogen species (RNS) and an important gas signal molecule. Macrophages could convert arginine into NO which participated in the body's inflammatory response. Therefore, determination of inhibitory activity of a drug on NO generation was one of the classic methods to evaluate drug's anti-inflammatory ability. RAW264.7 cells at exponential growth phase were inoculated into a 96-well plate at 1×10^4 cells/200 μL. well of medium. After adherence, the medium was discarded, and the cells were subjected to drug treatments. Normal group (serum-free medium), LPS model group (serum-free medium containing 1 μg/mL LPS), LPS+drug group (serum-free medium containing 1 μg/mL LPS, 10 μM gemfibrozil or the compound of the present application) were established, and 3 repeated wells were set for each group. After 24 hours incubation in incubator, cell supernatant of each well was collected and assay was performed according to the instructions of NO determination kit (Nanjing Jiancheng). The absorbance value of each well at wavelength of 540 nm was read and NO content was calculated.

phosphorylated IRS-1 = assay: Phosphorylated IRS-1 level by Western blotting in HepG2; format: cell-based, human; conditions: 1 μM, 24 hours, HepG2, Western blotting (FIG. 6C)
Excerpt: (§1) Carnitine palmitoyltransferase (CPT1α) is a rate-limiting enzyme of fatty acid oxidation. When the body or tissues are lacking in energy, CPT1α catalyzes the entry of fatty acids into mitochondria for […], and at the same time, CPT1α is also involved in the regulation of fatty acid-induced insulin resistance and inflammation. Protein kinase B/glycogen synthase kinase 3β (AKT/GSK3β) signaling pathway and insulin receptor substrate 1 (IRS-1) are key signaling pathways that regulate glucose metabolism in response to insulin signal. Therefore, by determining the effects of compounds on the CPT1α protein level and the AKT, GSK3β and IRS-1 protein phosphorylation levels, it is possible to evaluate the regulatory effects of the compounds on glycolipid metabolism.
(§2) After human liver cancer cells HepG2 were incubated with the compound of the present application or the control drug at 1 μM for 24 hours, the CPT1α protein level and the AKT, GSK3β and IRS-1 phosphorylated protein levels in the cells were determined by Western blotting; after gray-scale scanning by using Image J15.0.1, normalization was performed by using β-tubulin protein level as internal control, and the quantitative analysis results were shown in FIG. 6.

[2] = test system: antioxidant response element (ARE); assay: ARE luciferase reporter gene activity in HepG2 cells; format: cell-based, human; conditions: 50 μM, HepG2 stably transfected (FIG. 4)
Description: (§3) NF-κB was the most important inflammatory signal pathway. SW480 human colon cancer cells stably transfected with a luciferase reporter gene driven by NF-κB were used to determine the effects of the compound of the present application and the control drug gemfibrozil on NF-κB transcriptional activity, which comprised the following steps. • (1) Cells stably transfected with NF-κB Luc were cultivated to exponential growth, inoculated at a culture medium concentration of 1×10^5/[…] in a 24-well plate, and cultured for 24 hours, the medium was discarded, and the test compound or gemfibrozil formulated with serum-free medium at 50 μM were added to the 24-well plate and incubation was continued for 6 hours. After washing once with 200 μL of PBS, 100 μL of reporter gene cell lysis buffer was added, the cells were lysed on ice for 10 minutes, and the cell lysate was collected by pipetting. • (2) After centrifugation was performed at 8000 rpm and 4° C. for 10 min, the supernatant was pipetted for fluorescence assay. • (3) The measurement gap time of chemiluminescence analyzer was set to 2 s and the measurement time was set to 10 s. Automatic sample injection was adopted, 50 μL of luciferase assay reagent was added to each well. The reporter gene cell lysis buffer was used as a blank control. • (4) After centrifugation, the supernatant was taken, and the BCA method was used to determine the protein concentration so as to normalize the reporter gene results.
In this experimental example, the luciferase activity in HepG2 human liver cancer cells stably transfected with a luciferase reporter gene driven by antioxidant response element (ARE) was determined to evaluate the regulatory effects of the compound of the present application and gemfibrozil on the transcriptional activity of transcription factor Nrf2 and the cellular oxidative stress response signals, in which the operation process of the reporter gene assay was the same as that of Experimental Example 2.2.

PGC1α = PGC1α mRNA expression by real-time quantitative PCR in HepG2; format: cell-based, human; conditions: 1 μM, 6 hours, HepG2 (FIG. 5C)
Excerpt: (§4) Peroxisome proliferation factor activated receptor (PPAR) is an important nuclear receptor that regulates glycolipid metabolism, including three subtypes: α, β/δ and γ. Peroxisome proliferator-activated receptor γ coactivator 1α (PGC-1α) is its auxiliary transcriptional activator. Acyl-CoA oxidase 1 (ACOX1) is the first rate-limiting enzyme for fatty acid β oxidation. Fatty acid binding protein 1 (FABP1) is highly expressed in liver, and can bind fatty acid, heme and other molecules to reduce their toxicity and damage. Up-regulating the expression level of these genes helps to improve the body's metabolism, and their agonists are an important class of anti-metabolic drugs. After the compound of the present application (1 μM) and the control drug gemfibrozil (1 μM) were incubated with human liver cancer cells HepG2 for 6 hours, real-time fluorescent quantitative PCR method was used to determine the relative expression of mRNA of related genes in the cells.
(§5) The company which synthesized the primers was Suzhou Hongxun Biotechnology Co., Ltd. Tranzol reagent (Tranzol total RNA extraction reagent, TransGen Biotech) was used to extract total RNA from tissues. 5× All-In-One RT MasterMix reverse transcription kit (Abcam, USA) and real-time quantitative PCR Master Mix (Aidlab Biotechnologies Co., Ltd) were used. Bio-Rad CFX Connect™ Real-Time PCR Detection System for qPCR was used, and 2^−ΔΔCT method was used for data analysis. The expression level of mRNA in the normal control group was set to 1, and the relative expression level of mRNA in the administration group was calculated, so as to confirm whether the active compound affected the PPAR pathway, thereby further regulating lipid metabolism.

PPARγ = PPARγ mRNA expression by real-time quantitative PCR in HepG2; format: cell-based, human; conditions: 1 μM, 6 hours, HepG2 (FIG. 5B)
Excerpt: as §4, §5

NF-κB = NF-κB luciferase reporter gene transcriptional activity in SW480 cells; format: cell-based, human; conditions: 50 μM, 6 hours, SW480 stably transfected (FIG. 3)
Description: as §3

CPT1α = CPT1α protein level by Western blotting in HepG2; format: cell-based, human; conditions: 1 μM, 24 hours, HepG2, Western blotting (FIG. 6A)
Excerpt: as §1, §2

db/db mice = assay: Diabetes mellitus model (db/db mice); format: in vivo, mouse; conditions: intragastric once a day for 28 days, 50 mg/kg (pioglitazone 6 mg/kg)
Excerpt: Animal model: C57BL/KsJ-leprdb/leprdb diabetic (db/db) mice were widely used as animal models of type 2 diabetes mellitus, in which spontaneous mutations of leptin receptor (Leptin receptor, Lepr) caused extreme obesity, polyphagia, diabetes and polyuria. In this experiment, db/db mice (purchased from the Department of Animals, Health Science Center of Peking University) were selected. In the experiment, 28 db/db mice were used, and the animals with blood glucose of about 7-13 mmol/L were selected. […] Intragastric administration was adopted with an administration volume of 10 ml/kg. […] The administration was performed once a day for 28 consecutive days. From the day of oral administration, the physiological changes of the animals were observed every day. Blood glucose was measured every 3 days (Roche blood glucose meter) and blood glucose difference (Δ) was calculated by the following formula: blood glucose difference (Δ)=the blood glucose of the day—the initial blood glucose (the initial blood glucose difference was zero). For mice in each experimental group, blood was collected, serum was separated, and liver was taken for wet-weight measurement after necropsy; liver tissue was taken and fixed for pathological examination, H.E. staining and oil red O staining (Wuhan Zishan Biotechnology Co., Ltd.) were performed, and mouse liver lesions were observed under light microscope; routine examination of blood was performed by Animal Laboratory Department, Health Science Center of Peking University to measure the following indexes: white blood cell count (WBC), red blood cell count (RBC), lymphocyte count (LY), platelet (PLT) and so on; biochemical laboratory examination of blood was performed by Laboratory Medicine, Third Hospital, Peking University to measure the following indexes: triglycerides (TG), total cholesterol (T-CHO), high-density lipoprotein cholesterol (HDL-C), low-density lipoprotein cholesterol (LDL-C) and so on.

SMILES | NO generation induced by LPS [1] | phosphorylation level of IRS-1 (phosphorylated IRS-1) | ARE reporter gene activity [2] | activity of NF-κB reporter gene (NF-κB) | further results
Cc1cc(OCCC(C)(C)C(=O)O)c(C)cc1Br [BJMU-111, 4-(4-bromo-2,5-dimethylphenoxy)-2,2-dimethylbutanoic acid] | could inhibit NO generation | – | – | – | –
Cc1cc(Br)c(C)c(I)c1OCCCC(C)(C)C(=O)O [BJMU-413, 5-(4-bromo-2-iodo-3,6-dimethylphenoxy)-2,2-dimethylpentanoic acid] | could inhibit NO generation | – | – | – | –
Cc1cc(OCCCC(C)(C)C(=O)O)c(C)c(O)c1Br [BJMU-416, 5-(4-bromo-3-hydroxy-2,5-dimethylphenoxy)-2,2-dimethylpentanoic acid] | – | significantly increased the phosphorylation level of IRS-1 | could significantly activate the ARE reporter gene activity | – | –
COc1cc(Br)c(C)cc1OCCCC(C)(C)C(=O)O [BJMU-412, 5-(4-bromo-2-methoxy-5-methylphenoxy)-2,2-dimethylpentanoic acid] | – | significantly increased the phosphorylation level of IRS-1 | could significantly activate the ARE reporter gene activity | – | PGC1α mRNA expression (PGC1α): significantly induced PGC1α mRNA expression
Cc1cc(OCCCC(C)(C)C#N)c(C)cc1Br [BJMU-309, 5-(4-bromo-2,5-dimethylphenoxy)-2,2-dimethylpentanenitrile] | – | significantly increased the phosphorylation level of IRS-1 | – | could significantly inhibit the activity of NF-κB reporter gene | PPARγ mRNA expression (PPARγ): significantly induced PPARγ mRNA expression
Cc1ccc(C)c(OCCCC(C)(C)C(=O)O)c1Cl [BJMU-209, 5-(2-chloro-3,6-dimethylphenoxy)-2,2-dimethylpentanoic acid] | – | significantly increased the phosphorylation level of IRS-1 | – | could significantly inhibit the activity of NF-κB reporter gene | –
Cc1cc(Br)c(C)c(O)c1OCCCC(C)(C)C(=O)O [BJMU-415, 5-(4-bromo-2-hydroxy-3,6-dimethylphenoxy)-2,2-dimethylpentanoic acid] | could inhibit NO generation | significantly increased the phosphorylation level of IRS-1 | could significantly activate the ARE reporter gene activity | could significantly inhibit the activity of NF-κB reporter gene | CPT1α protein level (CPT1α): significantly increased CPT1α protein level; PPARγ mRNA expression (PPARγ): significantly induced PPARγ mRNA expression; PGC1α mRNA expression (PGC1α): significantly induced PGC1α mRNA expression
Cc1cc(OCCCCC(C)(C)C(=O)O)c(C)cc1Br [BJMU-403, 6-(4-bromo-2,5-dimethylphenoxy)-2,2-dimethylhexanoic acid] | could inhibit NO generation | – | could significantly activate the ARE reporter gene activity | – | –
Cc1cc(OCCCC(C)(C)C(=O)O)c(C)c(C)c1Br [BJMU-315, 5-(4-bromo-2,3,5-trimethylphenoxy)-2,2-dimethylpentanoic acid] | – | – | – | could significantly inhibit the activity of NF-κB reporter gene | –
CCC(C)(CCCOc1cc(C)c(Br)cc1C)C(=O)O (centres unmarked) [BJMU-401, 5-(4-bromo-2,5-dimethylphenoxy)-2-ethyl-2-methylpentanoic acid] | could inhibit NO generation | – | could significantly activate the ARE reporter gene activity | – | –
CCc1ccc(CCOc2ccc(CC3SC(=O)NC3=O)cc2)nc1 (centres unmarked) [Pioglitazone, pioglitazone] | – | – | – | – | AHDL (high density lipoprotein) (db/db mice): 1.65 ± 0.29 mmol/L; ALDL (low density lipoprotein) (db/db mice): 0.38 ± 0.03 mmol/L; ALT (db/db mice): 225.43 ± 79.31 U/L; AST (db/db mice): 212.79 ± 91.2 U/L; CHOL (total cholesterol) (db/db mice): 3.45 ± 0.26 mmol/L; CK (db/db mice): 1482.86 ± 707.74 U/L; CREA (db/db mice): 12 ± 3.91 µmol/L; TGL (triglycerides) (db/db mice): 2.17 ± 0.61 mmol/L
